SMILES strings stand for the structures.

The target of the experiment is T1, CX3CR1 (Homo sapiens, UniProt P49238).
T1 construct: expressed in transfected cells; host or cells: B300 cells
T1 sequence (P49238 1-355): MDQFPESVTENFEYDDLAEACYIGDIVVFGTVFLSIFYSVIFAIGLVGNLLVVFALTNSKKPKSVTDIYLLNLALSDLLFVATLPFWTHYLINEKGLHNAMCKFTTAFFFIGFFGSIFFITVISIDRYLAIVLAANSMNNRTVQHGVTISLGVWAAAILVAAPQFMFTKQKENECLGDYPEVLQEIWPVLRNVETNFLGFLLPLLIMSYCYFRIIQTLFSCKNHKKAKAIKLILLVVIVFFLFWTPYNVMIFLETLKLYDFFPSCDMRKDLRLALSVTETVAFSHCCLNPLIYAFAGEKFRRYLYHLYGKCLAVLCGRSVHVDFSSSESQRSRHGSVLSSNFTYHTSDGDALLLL
Kind of experiment: Inhibition of cell migration in fractalkine-induced chemotaxis assay. The note with it: CX3CR1-expressing B300 cells preincubated with test compound 30 minutes; fractalkine 0.3 nM in lower wells; Transwell, 3.5 hours at 37° C.; migrated cells counted with CellTiter; read-out: IC50 (nM), 50% inhibitory concentration on fractalkine-induced cell migration. Type of experiment: cell-based. Here is the method: The inhibitory effects of the example compounds on fractalkine-induced cell migration were examined using CX3CR1-transfected B300 cells
After equilibrating the Transwell plate (24-well clusters, pore size: 5 μm, manufactured by Corning Incorporated), a fractalkine solution (0.3 nM, manufactured by R&D Systems, Inc.) was added to the lower wells. CX3CR1-expressing B300 cells which were preincubated with the test compound (0.001, 0.003, 0.01 or 0.03 μM) for 30 minutes were placed in the upper layer wells, followed by incubation under the condition of 5% CO2 for 3.5 hours at 37° C. The number of cells migrated to the lower wells was evaluated using CellTiter (manufactured by Promega Corporation).
The inhibitory rate of the test compound on fractalkine-induced cell migration was calculated by the following formula, where [A] is the number of migrated cells in the presence of both fractalkine and the test compound, [B] is the number of migrated cells in the presence of fractalkine and in the absence of the test compound, and [C] is the number of migrated cells in the absence of both fractalkine and the test compound; the 50% inhibitory concentration (IC50) was calculated based on the inhibitory rate. Inhibitory rate (%)=[1−{(A−C)/(B−C)}]×100 (2) Results
`C[C@H]1CN(Cc2c(Cl)cccc2Cl)C[C@@]1(CC(=O)O)C(=O)N[C@H]1CCN(CC2=CCCCC2)C1` (relative stereo) [Example 9]: the IC50 was 16 nM.
In the case of `Cc1cccc(Cl)c1CN1C[C@H](C)[C@](CC(=O)O)(C(=O)NC2CCN(CC3=CCCC3)CC2)C1` [Example 8, 2-[(3S,4R)-1-[(2-Chloro-6-methylphenyl)methyl]-3-{[(1-cyclopent-1-en-1-ylmethyl)piperidin-4-yl]carbamoyl}-4-methylpyrrolidin-3-yl]acetic acid], the IC50 was found to be 31 nM.
Consider `C[C@H]1CN(Cc2c(Cl)cccc2Cl)C[C@@]1(CC(=O)O)C(=O)NC1CCN(CC2=CCCCC2)CC1` [Example 11, 2-[(3S,4R)-3-{[(1-Cyclohex-1-en-1-ylmethyl)piperidin-4-yl]carbamoyl}-1-[(2,6-dichlorophenyl)methyl]-4-methylpyrrolidin-3-yl]acetic acid], for which the IC50 worked out at 6 nM.

(Values after patent US8476301B2, “Pyrrolidin-3-ylacetic acid derivative” (Eisai R&D Management Co., Ltd., priority 2011, dated 2013).)
